Source: PubChem BioAssay AID2060599 (Molecular Pharmacology Branch, DTP, NCI, 2025)

System: 817829-284-R-J1-PDC complex spheroids, viability
Assay: Anticancer human tumor 817829-284-R-J1-PDC patient-derived colon adenocarcinoma cell line growth inhibition [CLK]
Details: second compound 0.316 µM; first compound 1 µM; hits give low values
Source text: A high-throughput screen of multi-cell type tumor spheroids was designed to identify active combinations of […] and targeted small molecules. Complex spheroids include a stromal component modeled by human endothelial cells (HUVEC) and fibroblasts modeled by human mesenchymal stem cells (MSCs). The concentration ranges selected for each drug and investigational agent were based upon clinically achievable concentrations if the clinical Cmax of the agent was known.
Compounds. The drugs and investigational agents: cirtuvivint (SM08502; NSC835563), CC-671 (NSC850746), vemurafenib (NSC761431), tapotoclax (NSC804041), sotorasib (NSC818433), adagrasib (NSC831453), MRTX-1133 (NSC836407), BAY2416964 (NSC825713), copanlisib (NSC816437), inavolisib (NSC800729), abemaciclib (NSC768073), osimertinib (NSC779217), entinostat (NSC756642), eltanexor (KPT-8602, NSC794443), venetoclax (NSC766270), ceralasertib (NSC777638), bortezomib (NSC756655), olaparib (NSC753686), talazoparib (NSC767125), alisertib (NSC759677), peposertib (NSC802822), gemcitabine (NSC613327), 5-fluorouracil (NSC19893), SN-38 (NSC673596), oxaliplatin (NSC266046), paclitaxel (NSC125973), and doxorubicin (NSC123127), were obtained from the National Cancer Institute (NCI) Developmental Therapeutics Program Chemical Repository. The FDA-approved anticancer drug set is available from the Developmental Therapeutics Program at https://dtp.cancer.gov/organization/dscb/obtaining/available plates.htm. […] The stock solutions were prepared in dimethyl sulfoxide (DMSO, Sigma-Aldrich, St. Louis, MO, cat. D2650), except for the platinum complexes which were prepared in saline (Quality Biological, Gaithersburg, MD, cat. 114-055-101), at 800-fold the tested concentration and stored at -70 degrees C prior to their use. All drugs and investigational agents were tested over a range starting from a high concentration at or near the clinical Cmax and decreasing in half-log increments. If the clinical Cmax for an agent had not been determined, the highest concentration tested was 10 microM.
Cell Culture. All cells were maintained in an incubator at 37 degrees C and 5% CO2 with 95% humidity. The PDC lines were cultured according to standard operating procedures established by the NCI PDMR. Briefly, all PDCs were thawed and cultured in Matrigel-coated flasks prepared with a working solution of 1X Ham's F-12 nutrient mix, without supplementation (Invitrogen, Waltham, MA, cat. 11765054), 100 U/mL penicillin-streptomycin (Invitrogen, cat. 15140122), and 2.5% Matrigel (Corning Inc., Corning, NY, cat. 354248) for the first three passages. The 947758-054-R-J2-PDC line was cultured in 6B/Colon 1A media, which includes advanced DMEM/F-12 (Thermo Fisher Scientific, cat. 12634028), 10 mM HEPES (Thermo Fisher Scientific, cat. 15630080), 1X GlutaMAX supplement (Thermo Fisher Scientific, cat. 35050061), 0.1 mg/mL primocin (InvivoGen, cat. ant-pm-2), 10% defined fetal bovine serum, heat inactivated (HyClone Laboratories Inc., cat. SH30070.03HI), 1.25 mM N-Acetyl-L-cysteine (Sigma-Aldrich, cat. A9165), 10 mM nicotinamide (Sigma-Aldrich, cat. N0636), 1X B-27 supplement (Thermo Fisher Scientific, cat. 17504044), 1X N-2 supplement (Thermo Fisher Scientific, cat. 17502048), and 10 microM Y-27632 dihydrochloride (Tocris Bioscience, cat. 1254). The 876862-298-R-J1-PDC was cultured in 6E media, which includes all 6B/Colon 1A media components plus 50% L-WRN conditioned media (ATCC, cat. CRL-3276), 50 ng/mL recombinant human EGF recombinant protein (hEGF; Thermo Fisher Scientific, cat. PHG0311), 10 ng/mL recombinant human fibroblast growth factor 10 (hGFG-10; PeproTech, cat. 100-26), 1 ng/mL recombinant human fibroblast growth factor 2 (hFGF-2; PeproTech, cat. 100-18B), and 1 µM prostaglandin E2 (PGE2; Tocris, cat. 2296). The 227483-062-R1-J1-PDC line was cultured in Panc media, containing all 6E components except hFGF-2, with the addition of 500 nM SB-431542 (Selleckchem, cat. S1067) and 10 nM gastrin (Tocris, cat. 3006). […]
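Also: spheroids exposed to the agents for seven days before readout.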

| Compound | viability, T/C [%] |
| --- | --- |
| C=C(F)C(=O)N1CCN(c2nc(OCC3CCCN3C)nc3c2CCN(c2cccc4cccc(Cl)c24)C3)CC1CC#N (stereo unspecified) + CN1CCN(c2cc(C(=O)Nc3cc4cc(-c5cnn(C)c5)ccc4cn3)ccn2)CC1 | 2.59 |
| C=CC(=O)N1CCN(c2nc(=O)n(-c3c(C)ccnc3C(C)C)c3nc(-c4c(O)cccc4F)c(F)cc23)C(C)C1 (stereo unspecified) + CN1CCN(c2cc(C(=O)Nc3cc4cc(-c5cnn(C)c5)ccc4cn3)ccn2)CC1 | 3.05 |
| COC1C=CCC(C)C(C)S(=O)(=O)NC(=O)c2ccc3c(c2)N(CC2CCC21)CC1(CCCc2cc(Cl)ccc21)CO3 (stereo unspecified) + CN1CCN(c2cc(C(=O)Nc3cc4cc(-c5cnn(C)c5)ccc4cn3)ccn2)CC1 | 1.31 |

Same assay, conditions: second compound 0.316 µM; first compound 3.16 µM; hits give low values

| Compound | viability, T/C [%] |
| --- | --- |
| C=C(F)C(=O)N1CCN(c2nc(OCC3CCCN3C)nc3c2CCN(c2cccc4cccc(Cl)c24)C3)CC1CC#N (stereo unspecified) + CN1CCN(c2cc(C(=O)Nc3cc4cc(-c5cnn(C)c5)ccc4cn3)ccn2)CC1 | 0.76 |
| C=CC(=O)N1CCN(c2nc(=O)n(-c3c(C)ccnc3C(C)C)c3nc(-c4c(O)cccc4F)c(F)cc23)C(C)C1 (stereo unspecified) + CN1CCN(c2cc(C(=O)Nc3cc4cc(-c5cnn(C)c5)ccc4cn3)ccn2)CC1 | 3.47 |
| COC1C=CCC(C)C(C)S(=O)(=O)NC(=O)c2ccc3c(c2)N(CC2CCC21)CC1(CCCc2cc(Cl)ccc21)CO3 (stereo unspecified) + CN1CCN(c2cc(C(=O)Nc3cc4cc(-c5cnn(C)c5)ccc4cn3)ccn2)CC1 | 1.5 |

Same assay, conditions: second compound 0.316 µM; first compound 10 µM; hits give low values

| Compound | viability, T/C [%] |
| --- | --- |
| C=C(F)C(=O)N1CCN(c2nc(OCC3CCCN3C)nc3c2CCN(c2cccc4cccc(Cl)c24)C3)CC1CC#N (stereo unspecified) + CN1CCN(c2cc(C(=O)Nc3cc4cc(-c5cnn(C)c5)ccc4cn3)ccn2)CC1 | 0.04 |
| C=CC(=O)N1CCN(c2nc(=O)n(-c3c(C)ccnc3C(C)C)c3nc(-c4c(O)cccc4F)c(F)cc23)C(C)C1 (stereo unspecified) + CN1CCN(c2cc(C(=O)Nc3cc4cc(-c5cnn(C)c5)ccc4cn3)ccn2)CC1 | 1.56 |
| COC1C=CCC(C)C(C)S(=O)(=O)NC(=O)c2ccc3c(c2)N(CC2CCC21)CC1(CCCc2cc(Cl)ccc21)CO3 (stereo unspecified) + CN1CCN(c2cc(C(=O)Nc3cc4cc(-c5cnn(C)c5)ccc4cn3)ccn2)CC1 | 0.95 |

Same assay, conditions: second compound 1 µM; first compound 0.0316 µM; hits give low values

| Compound | viability, T/C [%] |
| --- | --- |
| C=C(F)C(=O)N1CCN(c2nc(OCC3CCCN3C)nc3c2CCN(c2cccc4cccc(Cl)c24)C3)CC1CC#N (stereo unspecified) + CN1CCN(c2cc(C(=O)Nc3cc4cc(-c5cnn(C)c5)ccc4cn3)ccn2)CC1 | 0.15 |
| C=CC(=O)N1CCN(c2nc(=O)n(-c3c(C)ccnc3C(C)C)c3nc(-c4c(O)cccc4F)c(F)cc23)C(C)C1 (stereo unspecified) + CN1CCN(c2cc(C(=O)Nc3cc4cc(-c5cnn(C)c5)ccc4cn3)ccn2)CC1 | 0.15 |
| COC1C=CCC(C)C(C)S(=O)(=O)NC(=O)c2ccc3c(c2)N(CC2CCC21)CC1(CCCc2cc(Cl)ccc21)CO3 (stereo unspecified) + CN1CCN(c2cc(C(=O)Nc3cc4cc(-c5cnn(C)c5)ccc4cn3)ccn2)CC1 | 0.08 |

Same assay, conditions: second compound 1 µM; first compound 0.1 µM; hits give low values

| Compound | viability, T/C [%] |
| --- | --- |
| C=C(F)C(=O)N1CCN(c2nc(OCC3CCCN3C)nc3c2CCN(c2cccc4cccc(Cl)c24)C3)CC1CC#N (stereo unspecified) + CN1CCN(c2cc(C(=O)Nc3cc4cc(-c5cnn(C)c5)ccc4cn3)ccn2)CC1 | 0.11 |
| C=CC(=O)N1CCN(c2nc(=O)n(-c3c(C)ccnc3C(C)C)c3nc(-c4c(O)cccc4F)c(F)cc23)C(C)C1 (stereo unspecified) + CN1CCN(c2cc(C(=O)Nc3cc4cc(-c5cnn(C)c5)ccc4cn3)ccn2)CC1 | 0.15 |
| COC1C=CCC(C)C(C)S(=O)(=O)NC(=O)c2ccc3c(c2)N(CC2CCC21)CC1(CCCc2cc(Cl)ccc21)CO3 (stereo unspecified) + CN1CCN(c2cc(C(=O)Nc3cc4cc(-c5cnn(C)c5)ccc4cn3)ccn2)CC1 | 0.21 |

Same assay, conditions: second compound 1 µM; first compound 0.316 µM; hits give low values

| Compound | viability, T/C [%] |
| --- | --- |
| C=C(F)C(=O)N1CCN(c2nc(OCC3CCCN3C)nc3c2CCN(c2cccc4cccc(Cl)c24)C3)CC1CC#N (stereo unspecified) + CN1CCN(c2cc(C(=O)Nc3cc4cc(-c5cnn(C)c5)ccc4cn3)ccn2)CC1 | 0.11 |
| C=CC(=O)N1CCN(c2nc(=O)n(-c3c(C)ccnc3C(C)C)c3nc(-c4c(O)cccc4F)c(F)cc23)C(C)C1 (stereo unspecified) + CN1CCN(c2cc(C(=O)Nc3cc4cc(-c5cnn(C)c5)ccc4cn3)ccn2)CC1 | 0.22 |
| COC1C=CCC(C)C(C)S(=O)(=O)NC(=O)c2ccc3c(c2)N(CC2CCC21)CC1(CCCc2cc(Cl)ccc21)CO3 (stereo unspecified) + CN1CCN(c2cc(C(=O)Nc3cc4cc(-c5cnn(C)c5)ccc4cn3)ccn2)CC1 | 0.16 |

Same assay, conditions: second compound 1 µM; first compound 1 µM; hits give low values

| Compound | viability, T/C [%] |
| --- | --- |
| C=C(F)C(=O)N1CCN(c2nc(OCC3CCCN3C)nc3c2CCN(c2cccc4cccc(Cl)c24)C3)CC1CC#N (stereo unspecified) + CN1CCN(c2cc(C(=O)Nc3cc4cc(-c5cnn(C)c5)ccc4cn3)ccn2)CC1 | 0.11 |
| C=CC(=O)N1CCN(c2nc(=O)n(-c3c(C)ccnc3C(C)C)c3nc(-c4c(O)cccc4F)c(F)cc23)C(C)C1 (stereo unspecified) + CN1CCN(c2cc(C(=O)Nc3cc4cc(-c5cnn(C)c5)ccc4cn3)ccn2)CC1 | 0.15 |
| COC1C=CCC(C)C(C)S(=O)(=O)NC(=O)c2ccc3c(c2)N(CC2CCC21)CC1(CCCc2cc(Cl)ccc21)CO3 (stereo unspecified) + CN1CCN(c2cc(C(=O)Nc3cc4cc(-c5cnn(C)c5)ccc4cn3)ccn2)CC1 | 0.07 |

Same assay, conditions: second compound 1 µM; first compound 3.16 µM; hits give low values

| Compound | viability, T/C [%] |
| --- | --- |
| C=C(F)C(=O)N1CCN(c2nc(OCC3CCCN3C)nc3c2CCN(c2cccc4cccc(Cl)c24)C3)CC1CC#N (stereo unspecified) + CN1CCN(c2cc(C(=O)Nc3cc4cc(-c5cnn(C)c5)ccc4cn3)ccn2)CC1 | 0.84 |
| C=CC(=O)N1CCN(c2nc(=O)n(-c3c(C)ccnc3C(C)C)c3nc(-c4c(O)cccc4F)c(F)cc23)C(C)C1 (stereo unspecified) + CN1CCN(c2cc(C(=O)Nc3cc4cc(-c5cnn(C)c5)ccc4cn3)ccn2)CC1 | 0.1 |
| COC1C=CCC(C)C(C)S(=O)(=O)NC(=O)c2ccc3c(c2)N(CC2CCC21)CC1(CCCc2cc(Cl)ccc21)CO3 (stereo unspecified) + CN1CCN(c2cc(C(=O)Nc3cc4cc(-c5cnn(C)c5)ccc4cn3)ccn2)CC1 | 0.35 |

Same assay, conditions: second compound 1 µM; first compound 10 µM; hits give low values

| Compound | viability, T/C [%] |
| --- | --- |
| C=C(F)C(=O)N1CCN(c2nc(OCC3CCCN3C)nc3c2CCN(c2cccc4cccc(Cl)c24)C3)CC1CC#N (stereo unspecified) + CN1CCN(c2cc(C(=O)Nc3cc4cc(-c5cnn(C)c5)ccc4cn3)ccn2)CC1 | 0.05 |
| C=CC(=O)N1CCN(c2nc(=O)n(-c3c(C)ccnc3C(C)C)c3nc(-c4c(O)cccc4F)c(F)cc23)C(C)C1 (stereo unspecified) + CN1CCN(c2cc(C(=O)Nc3cc4cc(-c5cnn(C)c5)ccc4cn3)ccn2)CC1 | 0.16 |
| COC1C=CCC(C)C(C)S(=O)(=O)NC(=O)c2ccc3c(c2)N(CC2CCC21)CC1(CCCc2cc(Cl)ccc21)CO3 (stereo unspecified) + CN1CCN(c2cc(C(=O)Nc3cc4cc(-c5cnn(C)c5)ccc4cn3)ccn2)CC1 | 0.05 |

Same assay, conditions: second compound 3.16 µM; first compound 0.0316 µM; hits give low values

| Compound | viability, T/C [%] |
| --- | --- |
| C=C(F)C(=O)N1CCN(c2nc(OCC3CCCN3C)nc3c2CCN(c2cccc4cccc(Cl)c24)C3)CC1CC#N (stereo unspecified) + CN1CCN(c2cc(C(=O)Nc3cc4cc(-c5cnn(C)c5)ccc4cn3)ccn2)CC1 | 0.2 |
| C=CC(=O)N1CCN(c2nc(=O)n(-c3c(C)ccnc3C(C)C)c3nc(-c4c(O)cccc4F)c(F)cc23)C(C)C1 (stereo unspecified) + CN1CCN(c2cc(C(=O)Nc3cc4cc(-c5cnn(C)c5)ccc4cn3)ccn2)CC1 | 0.16 |
| COC1C=CCC(C)C(C)S(=O)(=O)NC(=O)c2ccc3c(c2)N(CC2CCC21)CC1(CCCc2cc(Cl)ccc21)CO3 (stereo unspecified) + CN1CCN(c2cc(C(=O)Nc3cc4cc(-c5cnn(C)c5)ccc4cn3)ccn2)CC1 | 0.15 |

Same assay, conditions: second compound 3.16 µM; first compound 0.1 µM; hits give low values

| Compound | viability, T/C [%] |
| --- | --- |
| C=C(F)C(=O)N1CCN(c2nc(OCC3CCCN3C)nc3c2CCN(c2cccc4cccc(Cl)c24)C3)CC1CC#N (stereo unspecified) + CN1CCN(c2cc(C(=O)Nc3cc4cc(-c5cnn(C)c5)ccc4cn3)ccn2)CC1 | 0.19 |
